Data reported in patent publication US10174013B2, “Benzimidazole derivatives as kinase inhibitors” (SELVITA S.A., priority 2012, dated 2019).
Read-outs that look alike come from different tables or passages of the source.

How the values were obtained:
[1] = tested on: MV4-11 xenograft; assay: MV4-11 xenograft in immunocompromised mice; type: in vivo
Text: Several compounds of the present invention have been studied in a xenograft in mice, an in vivo tumor transplantation model used to investigate the factors involved in malignant transformation, invasion and metastasis, as well as to examine response to therapy. For the purpose of acceptance of donor leukemic cells (MV4-11 or MOLM16 cells), immunocompromised mice were used, namely particularly severely compromised immunodeficient mice (NOD/scid, SCID/beige). When tumors developed size of approx. 50-200 mm^3, the compounds as indicated below in Tables 3 and 3a were administered orally every day for 2-3 weeks, in once a day (QD) or twice a day (BID) schedule. During the course of the experiment, the mice were monitored and the following two parameters were measured: the tumor growth inhibition (TGI) factor as a measure of therapeutic efficacy and the body weight change (ΔBW) factor as a measure of possible compound toxicity. The results are depicted in Tables 3 and 3a.
Next, compound 26A was evaluated in a xenograft study of acute myeloid leukemia (MV-4-11), alone or in a combinational treatment with Cytarabine in vivo (Table 3b; FIG. 6). Compound 26A was tested in two doses (50 and 25 mg/kg) and administered twice a day (BID); Cytarabine was administered at dose of 50 mg/kg three times in a week (TIW). During 15 days of compound administration dose-dependent anti-cancer activity of compound 26A (administered alone) was shown. Tumor growth inhibition reached −82% and −77%, respectively.

[2] = biological target: CDK2/E (Homo sapiens (Human), UniProt P24941); assay: ADP-Glo Kinase Assay, CDK2/E; type: biochemical; conditions: 1 μM compound; for inhibition at 1 µM: read-out: CDK2/E % INH (1 μM)
Summary of the method: (§1)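 Compounds were diluted in assay buffer to 1000 nM and incubated with kinase, substrate and ATP at apparent Km. Remaining ATP was depleted, ADP converted to ATP and detected by luciferase; percent inhibition came from normalized luminescence.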

[3] = biological target: Pim-2 (Homo sapiens (Human), UniProt Q9P1W9); assay: ADP-Glo Kinase Assay, Pim-2; type: biochemical; conditions: 1 μM compound; for inhibition at 1 µM: read-out: Pim-2 % INH (1 μM)
Pim-2, sequence (Q9P1W9 whole entry): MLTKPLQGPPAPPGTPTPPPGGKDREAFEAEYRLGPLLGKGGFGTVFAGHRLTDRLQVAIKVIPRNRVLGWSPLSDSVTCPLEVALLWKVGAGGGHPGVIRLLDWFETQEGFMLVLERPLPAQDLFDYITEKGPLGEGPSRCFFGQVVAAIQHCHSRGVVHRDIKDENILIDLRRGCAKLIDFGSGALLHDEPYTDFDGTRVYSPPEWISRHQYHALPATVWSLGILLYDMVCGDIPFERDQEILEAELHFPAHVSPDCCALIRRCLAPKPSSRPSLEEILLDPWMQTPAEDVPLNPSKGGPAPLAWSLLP
Method: (§2) Compounds of the present invention were tested for their inhibitory activity against Pim-1, Pim-2, Pim-3, Flt3 wt, Flt3 ITD, CDK2/E and DYRK1. The testing of the compounds was carried out using the ADP-Glo™ Kinase Assay from Promega Corporation (Madison, Wis., USA).
(§3) The ADP-Glo™ Kinase Assay is a luminescent ADP detection assay to measure kinase activity by quantifying the amount of ADP produced during a kinase reaction. The kinase assay is performed in kinase assay buffer (5 mM MOPS, pH 7.5, 5 mM MgCl2, 0.4 mM EDTA, 1.5 mM DTT). Test samples initially dissolved in DMSO at 10 mM were diluted with the assay buffer to 1000 nM. A 30 μL volume/well of a mixture of substrates containing ATP (final ATP concentration in each kinase assay was equal to its apparent ATP Km).
(§4) The assay was performed in two steps: first, after the kinase reaction, an equal volume of ADP-Glo™ Reagent was added to terminate the kinase reaction and deplete the remaining ATP. Second, the Kinase Detection Reagent was added to simultaneously convert ADP to ATP and allowed the newly synthesized ATP to be measured using a luciferase/luciferin reaction. The luminescent signal generated was proportional to the ADP concentration produced and was correlated with kinase activity. A microplate spectrophotometer (Synergy 2 multi-mode microplate reader [BioTek]) was used for detecting the luminescence. The data was normalized and the percent of inhibition was obtained according to the following equation: […]

[4] = tested on: Jeko-1 cells; assay: Growth inhibition, MTS assay, Jeko-1; type: cell-based, Human; conditions: 72 hours, MTS cell viability, read-out: Jeko-1 ED50
Text: (§5) The following cell lines, were obtained and used in tests as outlined below: • Human myelomonocytic, biphenotypic leukemia MV4-11 cells (harboring a Flt3-ITD mutation); • Human Acute Myeloid Leukemia MOLM16 cells; • Human Acute Myeloid Leukemia MOLM13 cells (harboring a Flt3-ITD mutation); • Human Myeloid Leukemia KG-1 cells; • Human erythroleukemia HEL92 cells; • Human mantle cell lymphoma Jeko-1 cells; • Human hepatocellular carcinoma HepG2 cells; and • Human colon adenocarcinoma SW-480 cells.
(§6) The assays were carried out according to the following protocol, which is described as an example for the MV4-11 cells:
(§7) Ten thousand MV4-11 cells were inoculated into each well of a 96-well microplate (manufactured by Corning Corp.) using Iscove's MDM medium (culture medium) containing 10% fetal calf serum (FCS). The same day, a dimethyl sulfoxide (DMSO) solution of each test compound prepared in a concentration of 10 mmol/L was further diluted with DMSO to the desired concentrations (0.1, 0.5, 1, 2.5, 5 and 10 micromol/L), and the diluted solution was added to each well. The individual wells were further cultured in 5% carbon dioxide at 37° C. for 72 hours. […] Briefly, 10 μl MTS (3-(4,5-Dimethyl-2-thiazolyl)-5-(carboxymethoxyphenyl)-2-(4-sulfophenyl)-2H-tetrazolium was added to each well, and culturing was performed in 5% carbon dioxide at 37° C. for 2 hours. After this incubation and using a microplate spectrophotometer (Synergy 2 multi-mode microplate reader (BioTek)), the absorbance of each well was measured at 490 nm. The value for cells not incubated with a test compound was designated as 100%. By comparing these values with the absorbance difference obtained at the well in which each test compound was added, the cell viability (% viability) after treatment with the test compound was calculated.

[5] = tested on: HepG2 cells; assay: Growth inhibition, MTS assay, HepG2; type: cell-based, Human; conditions: MTS cell viability, read-out: HepG2 ED50
[6] = biological target: FLT3wt (Homo sapiens (Human), UniProt P36888); assay: ADP-Glo Kinase Assay, Flt3 wt; type: biochemical; conditions: 1 μM compound; for inhibition at 1 µM: read-out: Flt3wt % INH (1 μM)
FLT3wt, sequence (P36888 27-993): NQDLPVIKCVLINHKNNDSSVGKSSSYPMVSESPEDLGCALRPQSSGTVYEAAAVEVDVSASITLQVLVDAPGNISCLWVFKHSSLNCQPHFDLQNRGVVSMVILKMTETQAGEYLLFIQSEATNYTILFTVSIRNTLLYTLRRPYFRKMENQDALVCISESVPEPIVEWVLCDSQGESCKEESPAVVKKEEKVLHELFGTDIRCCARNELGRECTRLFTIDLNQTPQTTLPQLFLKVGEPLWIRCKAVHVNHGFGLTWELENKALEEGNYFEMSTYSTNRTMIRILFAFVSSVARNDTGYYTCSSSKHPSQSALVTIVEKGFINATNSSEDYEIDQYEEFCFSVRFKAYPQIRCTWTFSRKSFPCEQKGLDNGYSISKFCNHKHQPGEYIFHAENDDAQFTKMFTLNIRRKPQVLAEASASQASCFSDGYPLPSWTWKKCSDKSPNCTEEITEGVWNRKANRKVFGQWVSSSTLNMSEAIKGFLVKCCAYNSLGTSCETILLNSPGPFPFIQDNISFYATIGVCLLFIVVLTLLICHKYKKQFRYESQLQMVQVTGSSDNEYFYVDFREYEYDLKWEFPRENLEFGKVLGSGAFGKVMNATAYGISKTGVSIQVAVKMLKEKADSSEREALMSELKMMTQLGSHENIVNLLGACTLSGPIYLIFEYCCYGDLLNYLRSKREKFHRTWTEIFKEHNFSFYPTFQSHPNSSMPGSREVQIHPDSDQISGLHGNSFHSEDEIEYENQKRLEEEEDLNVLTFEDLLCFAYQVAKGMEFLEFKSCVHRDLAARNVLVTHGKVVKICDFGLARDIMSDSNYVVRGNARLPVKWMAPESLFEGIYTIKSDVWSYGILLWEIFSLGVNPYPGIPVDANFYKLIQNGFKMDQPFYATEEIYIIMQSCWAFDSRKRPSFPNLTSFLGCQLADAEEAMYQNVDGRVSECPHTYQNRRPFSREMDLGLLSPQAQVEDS
Summary of the method: as §1

[7] = tested on: SW-480 cells; assay: Growth inhibition, MTS assay, SW-480; type: cell-based, Human; conditions: 72 hours, MTS cell viability, read-out: SW-480 ED50
Text: as §5, §6, §7

[8] = biological target: Pim-3 (Homo sapiens (Human), UniProt Q86V86); assay: ADP-Glo Kinase Assay, Pim-3; type: biochemical; conditions: 1 μM compound; for inhibition at 1 µM: read-out: Pim-3 % INH (1 μM)
Method: as §2, §3, §4

[9] = tested on: HEL92 cells; assay: Growth inhibition, MTS assay, HEL92; type: cell-based, Human; conditions: MTS cell viability, read-out: HEL92 ED50
[10] = biological target: Pim-1 (Homo sapiens (Human), UniProt P11309); assay: ADP-Glo Kinase Assay, Pim-1; type: biochemical; conditions: 1 μM compound; for inhibition at 1 µM: read-out: Pim-1 % INH (1 μM)
Pim-1, sequence (P11309 whole entry): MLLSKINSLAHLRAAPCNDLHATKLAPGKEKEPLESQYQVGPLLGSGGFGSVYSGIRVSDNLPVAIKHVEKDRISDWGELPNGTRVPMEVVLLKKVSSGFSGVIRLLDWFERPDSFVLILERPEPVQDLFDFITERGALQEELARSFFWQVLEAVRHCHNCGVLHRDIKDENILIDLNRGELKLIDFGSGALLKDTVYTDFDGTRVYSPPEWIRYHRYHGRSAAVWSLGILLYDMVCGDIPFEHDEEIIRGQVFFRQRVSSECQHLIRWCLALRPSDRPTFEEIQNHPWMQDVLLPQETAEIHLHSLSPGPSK
Summary of the method: as §1

[11] = tested on: MV4-11 cells; assay: Growth inhibition, MTS assay, MV4-11; type: cell-based, Human; conditions: MTS cell viability, read-out: MV4-11 ED50
[12] = biological target: DYRK1 (Homo sapiens (Human), UniProt Q13627); assay: ADP-Glo Kinase Assay, DYRK1; type: biochemical; conditions: 1 μM compound; for inhibition at 1 µM: read-out: DYRK1A % INH (1 μM)
Summary of the method: as §1

[13] = MV-4-11 xenograft, Cytarabine 50 mg/Kg TIW
[14] = MV4-11 xenograft, oral, 150 mg/Kg QD

SMILES | CDK2/E % INH (1 μM) [2] [%] | Pim-2 % INH (1 μM) [3] [%] | IC50 ([5]; 72 hours) [µM] | Flt3wt % INH (1 μM) [6] [%] | Pim-3 % INH (1 μM) [8] [%] | IC50 ([9]; 72 hours) [µM] | Pim-1 % INH (1 μM) [10] [%] | IC50 ([11]; 72 hours) [µM] | DYRK1A % INH (1 μM) [12] [%] | inhibition at 1 µM [3] [%] | IC50 ([7]; Homo sapiens, SW480) [µM] | inhibition at 1 µM [8] [%] | inhibition at 1 µM [2] [%] | IC50 ([5]; Homo sapiens, HepG2, 72 h) [µM] | inhibition at 1 µM [6] [%] | IC50 ([9]; Homo sapiens, 72 h) [µM] | inhibition at 1 µM [10] [%] | IC50 ([11]; Homo sapiens, MV4-11, 72 h) [µM] | IC50 ([4]; Homo sapiens, JeKo-1) [µM] | further results
Nc1ccn([C@@H]2O[C@H](CO)[C@@H](O)[C@@H]2O)c(=O)n1 [Cytarabine, cytarabine, reference compound] |  |  |  |  |  |  |  |  |  |  |  |  |  |  |  |  |  |  |  | TGI (tumor growth inhibition) [1, 13]: 60%; ΔBW (body weight change) [1, 13]: −2%
NCCCNc1nc2c([N+](=O)[O-])c(Br)c(Br)cc2n1CC1CC1 [Example 1AB] | <5 | 46 | 2.3 | <5 | 87 | 5.8 | >95 | 2.8 |  |  |  |  |  |  |  |  |  |  |  | IC50 [4]: 1.2 µM; IC50 [7]: 3.2 µM
CC(C)n1c(N2CC[C@H](N)C2)nc2c([N+](=O)[O-])c(Br)c(Br)cc21 [Example 1AZ] | 38 | 70 | 2.2 | 48 | 94 | 2.6 | >95 | 1.1 | 72 |  |  |  |  |  |  |  |  |  |  | TGI (tumor growth inhibition) [1, 14]: 76%; ΔBW (body weight change) [1, 14]: −0.2%; TGI (tumor growth inhibition) ([1]; MV4-11 xenograft, oral, doses as in Table 3): more than 70%
CCn1c(N2CCCC(N)C2)nc2c([N+](=O)[O-])c(Br)c(Br)cc21.Cl (centres unmarked) [Example 1F] | <5 | 36 | 3.3 | 6 | 83 | 5.0 | 90 | 2.3 | 20 |  |  |  |  |  |  |  |  |  |  | IC50 [7]: 3.3 µM
CCn1c(NC2CCC(N)CC2)nc2c([N+](=O)[O-])c(Br)c(Br)cc21 (centres unmarked) [Example 1H] | <5 |  | 2.7 | <5 |  | 7.6 | 58 | 2.3 | 9 | 25 | 3.4 | 38 |  |  |  |  |  |  |  | 
CC(C)n1c(NCCCN)nc2c([N+](=O)[O-])c(Br)c(Br)cc21 [Example 1L] |  |  |  |  |  |  |  |  |  | 58 | 3.3 | > 95 | 32 | 1.6 | 21 | 5.7 | > 95 | 1.2 |  | inhibition at 1 µM [12]: 47%
CC(C)Cn1c(N2CCCC(N)C2)nc2c([N+](=O)[O-])c(Br)c(Br)cc21 (centres unmarked) [Example 1V] |  |  |  |  |  |  |  |  |  |  | 3.1 | > 95 | < 5 | 0.9 | < 5 | 5.6 | > 95 | 0.7 | 2.9 | inhibition at 1 µM [12]: 11%
CCn1c(N2CCCC2CN)nc2c([N+](=O)[O-])c(Br)c(Br)cc21 (centres unmarked) [Example 1Z] |  |  |  |  |  |  |  |  |  |  | 6.9 | 92 | < 5 | 6.4 | < 5 |  | 67 | 1.7 | 5.6 | 
CCn1c(NC2CCC(O)CC2)nc2c([N+](=O)[O-])c(Br)c(Br)cc21 (centres unmarked) [Example 22B, 4-[(5,6-dibromo-1-ethyl-4-nitro-1H-1,3-benzodiazol-2-yl)amino]cyclohexan-1-ol] |  |  |  |  |  |  |  |  |  |  | 6 |  |  | > 10 |  | 8.8 |  | 7.9 | 3 | 
CCn1c(N2CCCN(C)CC2)nc2c([N+](=O)[O-])c(Br)c(Br)cc21 [Example 22M, 5,6-dibromo-1-ethyl-2-(4-methyl-1,4-diazepan-1-yl)-4-nitro-1H-1,3-benzodiazole] |  |  |  |  |  |  |  |  |  | 18 | 4.7 | 29 | < 5 | 5 | < 5 | 6.5 | 74 | 3.7 |  | 
